The record followed here is patent publication US6677492B2, “Fluoroether compositions and methods for inhibiting their degradation in the presence of a Lewis acid” (Abbott Laboratories, priority 1997, dated 2004).

Holding throughout (type): physicochemical
A short description of data set [1]: Degradation of sevoflurane with activated alumina at three moisture levels, gas chromatography. Particulars: 50 mg aluminum oxide; 20, 100, 260 ppm water; 60° C., 22 hours; FIG. 1. How it is done:
Type III glass consists mainly of silicon dioxide, calcium oxide, sodium oxide and aluminum oxide. Aluminum oxide is a known Lewis acid The glass matrix is normally inert to sevoflurane. However, under certain conditions (anhydrous, acidic), the glass surface can be attacked or altered, exposing sevoflurane to active Lewis acid sites such as aluminum oxide.
The effect of water on the degradation of sevoflurane was studied by adding various amounts of activated alumina to 20 ml of sevoflurane containing the following three levels of moisture: 1) 20 ppm water—measured water, no additional water added; 2) 100 ppm—spiked; and 3) 260 ppm water—spiked.
It will be appreciated that 20 ppm Water is equivalent to […] w/w Water. The samples were placed at 60° C. and analyzed by gas chromatography after 22 hours.

The nature of data set [2]: Degradation of sevoflurane in ampules by heat with and without added water. Particulars: Type I clear ampule autoclaved at 119° C. for three hours. How it is done: Approximately 20 mL of sevoflurane was added to a 50 mL Type I clear ampule and approximately 20 mL of sevoflurane and 1300 ppm of water was added to a second ampule. Both ampules were flame-sealed and then autoclaved at 119° C. for three hours. The contents of the two ampules were then analyzed by gas chromatography.

A short description of data set [3]: Degradation of sevoflurane in ampules, water-spiked studies (109 ppm to 951 ppm), autoclaved. Particulars: ampules in Set A and Set B, autoclaved at 119° C. for three hours. The procedure:
Type I clear glass ampules were used to study the effect of various levels of water in inhibiting the degradation of sevoflurane. Approximately 20 mL of sevoflurane and different levels of water ranging from about 109 ppm to about 951 ppm were added to each ampule. The ampules were then sealed. A total of ten ampules were filled with sevoflurane and varying amounts of water. Five of the ampules were included in Set A and the other five ampules were included in Set B. The ampules were then autoclaved at 119° C. for three hours. Samples in Set A were placed on a mechanical shaker overnight to allow the moisture to coat the glass surface. Samples in Set B were prepared without equilibrating the water with the glass surface. Several control samples were also prepared. Two non-autoclaved ampules (Control Ampule 1 and Control Ampule 2) and a bottle (Control bottle) were each filled with 20 mL of sevoflurane. No water was added to any of the control samples. Also, the controls samples were not shaken overnight. The levels of hexafluoroisopropanol (HFIP) and total degradants (including methyleneglycol bishexafluoroisopropyl ether, dimethyleneglycol bishexafluoroisopropyl ether, methyleneglycol fluoromethyl hexafluoro isopropyl ether) were measured by gas chromatography.

Data set [4] can be described thus: Degradation of water-spiked sevoflurane in ampules at 60° C. or 40° C. The procedure:
Type I clear glass ampules were employed to study the effect of various levels of water and temperature in inhibiting the degradation of sevoflurane. Approximately 20 mL of sevoflurane and different levels of water ranging from about 109 ppm to about 951 ppm were added to each ampule. The ampules were then flame-sealed. To accelerate the degradation process, samples from each moisture level were placed at two heating conditions. Samples were placed on 60° C. stability station for 144 hours or placed on a 40° C. stability station for 200 hours. The resulting sevoflurane in each of the samples was analyzed by gas chromatography and pH. Hexafluoroisopropyl alcohol (HFIP) and the total degradants of sevoflurane were measured.

A short description of data set [5]: Sevoflurane degradation in activated Type III amber glass bottles, 20 ppm vs 400 ppm water. How it is done: The extent of the degradation of sevoflurane in each of the bottles from Example 5 were quantified by gas chromatography. The ten bottles were divided into two groups, the Control Sevo Group (containing bottles 2, 3, 5, 7, 8) and the Study Sevo Group (containing Bottles 1, 4, 6, 9, 10).
All ten bottles were re-rinsed several times with non-degraded sevoflurane containing about 20 ppm of water. For the five Control Sevo Group bottles, 100 mL of sevoflurane containing about 20 ppm of water was added to each bottle. For the five Study Group bottles, 100 mL of sevoflurane containing about 400 ppm of water (spiked) was added to each bottle.
Gas chromatography for all samples was performed at time zero and after heating at 50° C. for 18 hours. Hexafluoroisopropyl alcohol (HFIP), dimethyleneglycol bishexafluoroisopropyl ether (P2) and total degradants were measured.

Data set [6] is described as follows: Sevoflurane degradation in activated Type III amber glass bottles pre-treated with water-saturated sevoflurane. Particulars: activated glass surface treated with water saturated-sevoflurane prior to heating. How it is done:
Sevoflurane was decanted from the five bottles of the Study Sevo Group from Example 6. Each bottle was rinsed thoroughly with fresh sevoflurane. Approximately 125 mL of water-saturated sevoflurane was then put into each bottle. The five bottles were then placed on a mechanical roller for approximately two hours to allow the water to coat the activated glass surfaces. The water-saturated sevoflurane was then drained form each bottle and replaced by 100 mL of sevoflurane containing 400 (spiked) ppm of water. Gas chromatography analysis for all samples was performed after heating at 50° C. for 18 hours, 36 hours, and 178 hours. bishexafluoroisopropyl ether (P2) and total degradants were measured.

Take `FCOC(C(F)(F)F)C(F)(F)F` [sevoflurane, fluoromethyl-2,2,2-trifluoro-1-(trifuoromethyl)ethyl ether]: the degradation of sevoflurane entry in data set [1] is recorded as “decreases with increasing amounts of water”; in data set [2] (first ampule, no water added, FIG. 2), “degraded”; in data set [2] (second ampule, 1300 ppm of water, FIG. 3), “did not degrade”; in data set [5] (Study Sevo Group (400 ppm water), 50° C. for 18 hours) it was “significantly reduced”; in data set [5] (zero hour, compared to zero-hour results in Table 4), “no significant degradation”; in data set [6], “greatly inhibited”. Further, the “water sufficient to inhibit the degradation of sevoflurane” value in data set [3] is “at least 595 ppm”. Moreover, the “water levels that inhibit degradation of sevoflurane” value is “higher than 206 ppm” in data set [4] (40° C. for 200 hours) and “higher than 303 ppm” in data set [4] (60° C. for 144 hours or longer). The HFIP concentration result in data set [5] (Study Sevo Group (400 ppm water)) is on record as “quite high”. The “amounts of degradants P2 and S1” value in data set [5] (Study Sevo Group (400 ppm water) compared with Control Group (20 ppm water)) was “much less”. The “degradation of sevoflurane (degradant S1)” value in data set [5] (addition of 400 ppm of water, activated amber glass bottles, Examples 5 and 6, FIG. 5) is “inhibited”. Moreover, the “degradation of sevoflurane (degradant P2)” value in data set [5] (addition of 400 ppm of water, activated type III amber glass bottles, Examples 5 and 6, FIG. 4) was “inhibited”.
